# In US9226916B2, “Pyrrolidine derivatives” (HOFFMANN-LA ROCHE INC., priority 2009, dated 2016):
# Target: T1, recombinant human NK3 receptor (Homo sapiens, UniProt P29371)
# T1 construct: expressed in transfected cells; host or cells: HEK293 cells, transient expression; membranes
# T1 sequence (P29371 1-465): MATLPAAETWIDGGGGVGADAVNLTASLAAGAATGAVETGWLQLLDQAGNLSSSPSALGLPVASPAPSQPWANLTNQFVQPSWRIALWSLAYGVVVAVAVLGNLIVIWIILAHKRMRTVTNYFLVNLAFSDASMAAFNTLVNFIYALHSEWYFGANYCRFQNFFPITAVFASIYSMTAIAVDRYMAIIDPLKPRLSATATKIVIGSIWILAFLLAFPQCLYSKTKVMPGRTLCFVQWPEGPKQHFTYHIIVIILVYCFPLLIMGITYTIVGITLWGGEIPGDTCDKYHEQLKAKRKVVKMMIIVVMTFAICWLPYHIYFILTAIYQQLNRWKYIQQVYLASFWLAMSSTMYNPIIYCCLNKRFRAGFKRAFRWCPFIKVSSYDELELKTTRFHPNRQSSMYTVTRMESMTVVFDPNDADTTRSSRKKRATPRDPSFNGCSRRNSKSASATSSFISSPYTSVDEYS
# Assay: [3H]SR142801 competition binding assay
# Conditions: not given
row,Structure (SMILES),Ki [nM]
1,"CN(C(=O)O[C@H]1CC[C@@H](C)CC1)[C@@H]1CN(C(=O)C2CCN(c3ccc(C#N)cn3)CC2)C[C@H]1c1ccc(Cl)cc1 [Example 220, [(3S,4R)-4-(4-Chloro-phenyl)-1-(5′-cyano-3,4,5,6-tetrahydro-2H-[1,2′]bipyridinyl-4-carbonyl)-pyrrolidin-3-yl]-methyl-carbamic acid 4-methyl-cyclohexyl ester]",42.8
2,"CN(C(=O)O[C@H]1CC[C@H](C)CC1)[C@@H]1CN(C(=O)C2CCN(c3ccc(C#N)cn3)CC2)C[C@H]1c1ccc(Cl)cc1 [Example 221, [(3S,4R)-4-(4-Chloro-phenyl)-1-(5′-cyano-3,4,5,6-tetrahydro-2H-[1,2′]bipyridinyl-4-carbonyl)-pyrrolidin-3-yl]-methyl-carbamic acid 4-methyl-cyclohexyl ester]",1
3,"CN(C(=O)Oc1ccc(S(C)(=O)=O)cc1)[C@@H]1CN(C(=O)C2CCN(c3ccc(C#N)cn3)CC2)C[C@H]1c1ccc(Cl)cc1 [Example 224, [(3S,4R)-4-(4-Chloro-phenyl)-1-(5′-cyano-3,4,5,6-tetrahydro-2H-[1,2′]bipyridinyl-4-carbonyl)-pyrrolidin-3-yl]-methyl-carbamic acid 4-methanesulfonyl-phenyl ester]",22.8
4,"CN(C(=O)Oc1cccc(C#N)c1)[C@@H]1CN(C(=O)C2CCN(c3ccc(C#N)cn3)CC2)C[C@H]1c1ccc(Cl)cc1 [Example 225, [(3S,4R)-4-(4-Chloro-phenyl)-1-(5′-cyano-3,4,5,6-tetrahydro-2H-[1,2′]bipyridinyl-4-carbonyl)-pyrrolidin-3-yl]-methyl-carbamic acid 3-cyano-phenyl ester]",11.2
5,"CC(OC(=O)N(C)[C@@H]1CN(C(=O)C2CCN(c3ccc(C#N)cn3)CC2)C[C@H]1c1ccc(Cl)cc1)c1ccc(F)cc1 (stereo partly drawn) [Example 226, [(3S,4R)-4-(4-Chloro-phenyl)-1-(5′-cyano-3,4,5,6-tetrahydro-2H-[1,2′]bipyridinyl-4-carbonyl)-pyrrolidin-3-yl]-methyl-carbamic acid 1-(4-fluoro-phenyl)-ethyl ester]",79.2
6,"CN(C(=O)Oc1ccc(C#N)cc1)[C@@H]1CN(C(=O)C2CCN(c3ccc(C#N)cn3)CC2)C[C@H]1c1ccc(Cl)cc1 [Example 228, [(3S,4R)-4-(4-Chloro-phenyl)-1-(5′-cyano-3,4,5,6-tetrahydro-2H-[1,2′]bipyridinyl-4-carbonyl)-pyrrolidin-3-yl]-methyl-carbamic acid 4-cyano-phenyl ester]",0.8
7,"Cc1ccccc1OC(=O)N(C)[C@@H]1CN(C(=O)C2CCN(c3ccc(C#N)cn3)CC2)C[C@H]1c1ccc(Cl)cc1 [Example 229, [(3S,4R)-4-(4-Chloro-phenyl)-1-(5′-cyano-3,4,5,6-tetrahydro-2H-[1,2′]bipyridinyl-4-carbonyl)-pyrrolidin-3-yl]-methyl-carbamic acid o-tolyl ester]",16.8
8,"Cc1cccc(OC(=O)N(C)[C@@H]2CN(C(=O)C3CCN(c4ccc(C#N)cn4)CC3)C[C@H]2c2ccc(Cl)cc2)c1 [Example 230, [(3S,4R)-4-(4-Chloro-phenyl)-1-(5′-cyano-3,4,5,6-tetrahydro-2H-[1,2′]bipyridinyl-4-carbonyl)-pyrrolidin-3-yl]-methyl-carbamic acid m-tolyl ester]",2.7
9,"CN(C(=O)OCC1CCCO1)[C@@H]1CN(C(=O)C2CCN(c3ccc(C#N)cn3)CC2)C[C@H]1c1ccc(Cl)cc1 (stereo partly drawn) [Example 232, [(3S,4R)-4-(4-Chloro-phenyl)-1-(5′-cyano-3,4,5,6-tetrahydro-2H-[1,2′]bipyridinyl-4-carbonyl)-pyrrolidin-3-yl]-methyl-carbamic acid tetrahydro-furan-2-ylmethyl ester]",21.8
10,"CN(C(=O)OCC1CCOC1)[C@@H]1CN(C(=O)C2CCN(c3ccc(C#N)cn3)CC2)C[C@H]1c1ccc(Cl)cc1 (stereo partly drawn) [Example 233, [(3S,4R)-4-(4-Chloro-phenyl)-1-(5′-cyano-3,4,5,6-tetrahydro-2H-[1,2′]bipyridinyl-4-carbonyl)-pyrrolidin-3-yl]-methyl-carbamic acid tetrahydro-furan-3-ylmethyl ester]",6
11,"CCC(C)(C)OC(=O)N(C)[C@@H]1CN(C(=O)C2CCN(c3ccc(C#N)cn3)CC2)C[C@H]1c1ccc(Cl)cc1 [Example 234, [(3S,4R)-4-(4-Chloro-phenyl)-1-(5′-cyano-3,4,5,6-tetrahydro-2H-[1,2′]bipyridinyl-4-carbonyl)-pyrrolidin-3-yl]-methyl-carbamic acid 1,1-dimethyl-propyl ester]",79.4
12,"CCC(OC(=O)N(C)[C@@H]1CN(C(=O)C2CCN(c3ccc(C#N)cn3)CC2)C[C@H]1c1ccc(Cl)cc1)c1ccc(F)cc1 (stereo partly drawn) [Example 236, [(3S,4R)-4-(4-Chloro-phenyl)-1-(5′-cyano-3,4,5,6-tetrahydro-2H-[1,2′]bipyridinyl-4-carbonyl)-pyrrolidin-3-yl]-methyl-carbamic acid 1-(4-fluoro-phenyl)-propyl ester]",64.8
13,"CN(C(=O)Oc1ccc(C#N)cc1F)[C@@H]1CN(C(=O)C2CCN(c3ccc(C#N)cn3)CC2)C[C@H]1c1ccc(Cl)cc1 [Example 237, [(3S,4R)-4-(4-Chloro-phenyl)-1-(5′-cyano-3,4,5,6-tetrahydro-2H-[1,2′]bipyridinyl-4-carbonyl)-pyrrolidin-3-yl]-methyl-carbamic acid 4-cyano-2-fluoro-phenyl ester]",0.4
14,"COC1CCC(OC(=O)N(C)[C@@H]2CN(C(=O)C3CCN(c4ccc(C#N)cn4)CC3)C[C@H]2c2ccc(Cl)cc2)CC1 (stereo partly drawn) [Example 238, [(3S,4R)-4-(4-Chloro-phenyl)-1-(5′-cyano-3,4,5,6-tetrahydro-2H-[1,2′]bipyridinyl-4-carbonyl)-pyrrolidin-3-yl]-methyl-carbamic acid 4-methoxy-cyclohexyl ester]",48
15,"CN(C(=O)OC(c1ccc(F)cc1)C1CC1)[C@@H]1CN(C(=O)C2CCN(c3ccc(C#N)cn3)CC2)C[C@H]1c1ccc(Cl)cc1 (stereo partly drawn) [Example 239, [(3S,4R)-4-(4-Chloro-phenyl)-1-(5′-cyano-3,4,5,6-tetrahydro-2H-[1,2′]bipyridinyl-4-carbonyl)-pyrrolidin-3-yl]-methyl-carbamic acid cyclopropyl-(4-fluoro-phenyl)-methyl ester]",61.6
16,"CN(C(=O)O[C@]1(C(F)(F)F)CC[C@@H](C)CC1)[C@@H]1CN(C(=O)C2CCN(c3ccc(C#N)cn3)CC2)C[C@H]1c1ccc(Cl)cc1 [Example 240, [(3S,4R)-4-(4-Chloro-phenyl)-1-(5′-cyano-3,4,5,6-tetrahydro-2H-[1,2′]bipyridinyl-4-carbonyl)-pyrrolidin-3-yl]-methyl-carbamic acid 4-methyl-1-trifluoromethyl-cyclohexyl ester]",22.8

# Same assay, conditions: hNK-3 receptor affinity; membranes from HEK293 cells transiently expressing recombinant human NK3 receptor; [3H]SR142801; Cheng-Prussoff; read-out: Data Ki
row,Structure (SMILES),Ki [nM]
1,"CN(C(=O)OCC1CC1)[C@@H]1CN(C(=O)C2CCN(c3ccc(C#N)cn3)CC2)C[C@H]1c1ccc(Cl)cc1 [Example 215, [(3S,4R)-4-(4-Chloro-phenyl)-1-(5′-cyano-3,4,5,6-tetrahydro-2H-[1,2′]bipyridinyl-4-carbonyl)-pyrrolidin-3-yl]-methyl-carbamic acid cyclopropylmethyl ester]",8.4
2,"COCCCOC(=O)N(C)[C@@H]1CN(C(=O)C2CCN(c3ccc(C#N)cn3)CC2)C[C@H]1c1ccc(Cl)cc1 [Example 216, [(3S,4R)-4-(4-Chloro-phenyl)-1-(5′-cyano-3,4,5,6-tetrahydro-2H-[1,2′]bipyridinyl-4-carbonyl)-pyrrolidin-3-yl]-methyl-carbamic acid 3-methoxy-propyl ester]",53.6
3,"CN(C(=O)OCC1(C)CC1)[C@@H]1CN(C(=O)C2CCN(c3ccc(C#N)cn3)CC2)C[C@H]1c1ccc(Cl)cc1 [Example 217, [(3S,4R)-4-(4-Chloro-phenyl)-1-(5′-cyano-3,4,5,6-tetrahydro-2H-[1,2′]bipyridinyl-4-carbonyl)-pyrrolidin-3-yl]-methyl-carbamic acid 1-methyl-cyclopropylmethyl ester]",7.7
4,"CN(C(=O)OCC1(C)COC1)[C@@H]1CN(C(=O)C2CCN(c3ccc(C#N)cn3)CC2)C[C@H]1c1ccc(Cl)cc1 [Example 218, [(3S,4R)-4-(4-Chloro-phenyl)-1-(5′-cyano-3,4,5,6-tetrahydro-2H-[1,2′]bipyridinyl-4-carbonyl)-pyrrolidin-3-yl]-methyl-carbamic acid 3-methyl-oxetan-3-ylmethyl ester]",19.5
5,"CN(C(=O)OCCC1CC1)[C@@H]1CN(C(=O)C2CCN(c3ccc(C#N)cn3)CC2)C[C@H]1c1ccc(Cl)cc1 [Example 219, [(3S,4R)-4-(4-Chloro-phenyl)-1-(5′-cyano-3,4,5,6-tetrahydro-2H-[1,2′]bipyridinyl-4-carbonyl)-pyrrolidin-3-yl]-methyl-carbamic acid 2-cyclopropyl-ethyl ester]",3.6
6,"CN(C(=O)OCC1CCOCC1)[C@@H]1CN(C(=O)C2CCN(c3ccc(C#N)cn3)CC2)C[C@H]1c1ccc(Cl)cc1 [Example 231, [(3S,4R)-4-(4-Chloro-phenyl)-1-(5′-cyano-3,4,5,6-tetrahydro-2H-[1,2′]bipyridinyl-4-carbonyl)-pyrrolidin-3-yl]-methyl-carbamic acid tetrahydro-pyran-4-ylmethyl ester]",5.7
7,"CN(C(=O)O[C@]1(C)CC[C@@H](C)CC1)[C@@H]1CN(C(=O)C2CCN(c3ccc(C#N)cn3)CC2)C[C@H]1c1ccc(Cl)cc1 [Example 242, [(3S,4R)-4-(4-Chloro-phenyl)-1-(5′-cyano-3,4,5,6-tetrahydro-2H-[1,2′]bipyridinyl-4-carbonyl)-pyrrolidin-3-yl]-methyl-carbamic acid 1,4-dimethyl-cyclohexyl ester]",2.7
